The values that follow come from patent publication US5049372A, “Anticancer activities in a host by increasing blood and plasma adenosine 5'-triphosphate (ATP) levels” (priority 1988, dated 1991).

Counter-ions that a name gives are not always drawn.

In one series the test system is CAPAN-1 xenografts. The experiment in a line: Arrest of growth of CAPAN-1 xenografts in athymic nu/nu mice (Table 2). To be noted: experiment 5, 10 F, 0.5 × 10^5 cells, 9 weeks, 1 ml of 50 mM i.p. Type of series: in vivo, human. The procedure:
(§1) The tumor cell lines employed were CT26, a mouse undifferentiated, aggressive colon carcinoma, and CAPAN-1, a well-differentiated human pancreatic adenocarcinoma. […] The cells are shown to be free of Mycoplasma contamination. Cells are cultured at 37° C. in a humidified atmosphere of 5% CO2 /95% air in MEM supplemented with antibiotics (100 units of penicillin per ml and 100 μg streptomycin per ml), L-glutamine (2 mM), non-essential amino acids (0.1 mM), sodium pyruvate (1 mM), and 10% fetal bovine serum.
(§2) In the tests, females and males CB6F1 mice (a standard F1 hybrid of BALB/C and C57BL/6) obtained from Jackson Laboratories, Bar Harbor, Maine and athymic outbred NCr nu/nu mice (males and females) from the Department of Radiation Medicine, Massachusetts General Hospital, Boston, Mass. 02114 are used. All the mice are kept for at least two weeks before inoculation of the tumors and the start of treatment and are 7-9 weeks old (CB6F1) or 6-7 weeks old (athymic nu/nu) at the start of the procedure. Animals weigh 20-25 g (females) or 23-28 g (males), are housed 5-12 per cage, and have ad libitum access to food and water.
(§3) Tumor cells are removed from subconfluent cultures by a mild trypsin-EDTA treatment, the cell pellet is washed once with MEM without serum and the cells are suspended at the desired cell numbers in PBS (phosphate-bufferedsaline, 8 g NaCl, 0.2 g KCl, 1.15 g Na2 HPO4.7H2 O, and 0.2 g KH2 PO4 per liter). Cell suspensions are shown to be at least 90% viable by trypan blue exclusion. Mice are injected subcutaneously in the right hind footpad with tumor cells suspended in 50 μl of PBS. The regular protocol (unless otherwise stated) consists of daily i.p. injections of 1 ml of 0.85% NaCl solution or 1 ml of 50 mM of AMP, ADP, or ATP in 0.85% NaCl (from stock solutions adjusted to pH 6.2) starting one day after tumor inoculation and given for ten consecutive days.
(§4) Injections are administered with 30 gauge needles and the mice are lightly anesthetized with ether. The mice are weighed before the start of treatment and once a week during and after treatment. After the tumors become palpable, tumor sizes are determined every three days. The animals are sacrificed, tumors are excised and weighed before they reach 10% of the animals' weight.
The effects of AMP, ADP, and ATP on human tumor xenografts in nude mice were evaluated utilizing the pancreatic ductal adenocarcinoma CAPAN-1 (see Kyriazis AP, Kyriazis AA, Scarpelli DG, Fogh J, Rao SM, Lepera R., "Human Pancreatic Adenocarcinoma Line CAPAN-1 in Tissue Culture and the Nude Mouse", Am. J. Pathol., 1982, 106, 250-260).
Treatment schedules consist of single daily i.p. injections for 10 consecutive days, starting one day after tumor inoculation. Tumor burden is relatively low (0.5-1×10^5 cells implanted) and tumor growth is slow (tumors became palpable 4-6 weeks after inoculation).
(In general: A xenograft is tissue or cells of one species grown in another, often human tumour cells in immunodeficient mice.)

A short description of series [1]: ATP levels in mouse blood (total cellular) and plasma after i.p. injection (Table 3). The series is classed as in vivo. To be noted: CB6F1; for Blood ATP levels: total cellular. As to the method:
The mice are anesthetized with ether during the procedure. The plasma is prepared by immediate centrifugation of the blood in a Beckman microfuge (30 sec at 8000 xg). Blood (20 μl) or plasma (100 μl) aliquots are added to 1 ml of cold 7% trichloroacetic acid. […] The determination of ATP levels in the extracts is performed by bioluminometry (luciferinluciferase) using a Turner Designs Bioluminescence Photometer.

The subject of the next series is CT26 tumors. Put plainly: Growth inhibition of s.c. footpad CT26 tumors in CB6F1 mice by daily i.p. adenine nucleotides (Table 1). The series is classed as in vivo, mouse. To be noted: 0.5 × 10^6 cells, 1 ml of 50 mM i.p. daily. As to the method:
as §1, §2, §3, §4
The growth inhibitory properties of adenine nucleotides against CT26 murine colon carcinoma, which are inoculated s.c. in the hind footpad of CB6F1 mice, are illustrated in Table 1 hereinbelow. […] No significant differences between males and females are observed either in the rate of tumor growth or in the tumor's response to adenine nucleotides treatment.

A further series deals with tumor cells. The note with it: low doses; prior application Ser. No. 397,897; cited from earlier work.
The nature of series [2]: Host toxicity (deaths, body weight) in treated mice. To be noted: i.p. injections of adenine nucleotides. Type of series: in vivo, mouse. As to the method: as §3, §4
Series [3] deals with blood plasma phosphodiesterase. To be noted: anticoagulant; chelation of divalent cations; cited from earlier work.
In a further series the test system is human subjects. To be noted: single rapid injections of 40 mg, intravenous or intra-arterial; cited from earlier work.
The test system of the next series is tumor-bearing hosts. To be noted: literature; cited from earlier work.
Where [4] appears, read: 1 hour after i.p. 1 ml of 50 mM.
Where [5] appears, read: 5 hours after i.p. 1 ml of 50 mM.
The mark [6] stands for this setting: experiment 3, 12 M per group, day 13.
The mark [7] stands for this setting: experiment 4, 11 F per group, day 14.

Regarding `Nc1ncnc2c1ncn2[C@@H]1O[C@H](COP(=O)(O)OP(=O)(O)O)[C@@H](O)[C@H]1O` [ADP, adenosine 5'-diphosphate], in the series with CAPAN-1 xenografts, the Arrested tumors/implanted tumors was 6/10. For the same compound, in series [1] (setting [4]), the “Plasma ATP levels” value is 2.66 ± 0.46 µM and the “Blood ATP levels” value is 1.28 ± 0.30 mM. In series [1] (setting [5]), the “Plasma ATP levels” value came out at 2.75 ± 0.87 µM and the “Blood ATP levels” value was 1.65 ± 0.41 mM. Also, in the series on CT26 tumors (setting [6]), the Tumor diameter was determined as 1.3 ± 0.2 cm and the Tumor weight is 0.73 ± 0.23 g. In the series on CT26 tumors (setting [7]), the Tumor diameter turned out to be 1.1 ± 0.2 cm and the Tumor weight is on record as 0.86 ± 0.27 g. Also, the “Effect on growth of tumor cells in vitro (in words)” value in the series with tumor cells was “marked inhibition of DNA synthesis and arrest of significant populations of cells in the S phase of their cycle”. Moreover, the Deaths result in series [2] is “Occasionally, an animal treated with ATP or ADP would die a few hours after injection”.
Take `O=C(O)CC(O)(CC(=O)O)C(=O)O` [Citrate]: the “Inhibition of blood plasma phosphodiesterase activity” value in series [3] was “inhibit the activity of a blood plasma phosphodiesterase”.
With `Nc1ncnc2c1ncn2[C@@H]1O[C@H](COP(=O)(O)OP(=O)(O)OP(=O)(O)O)[C@@H](O)[C@H]1O` [sodium salt of ATP, reference compound], the “Subjective and physiological changes in human subjects” value in the series on human subjects was “small subjective and physiological changes in human subjects”.
On to insulin: the anabolic hormone insulin, for which, in the series with tumor-bearing hosts, the “Effect against rapid weight losses in tumor-bearing hosts” value was “effective against rapid weight losses in tumor-bearing hosts” and the “Effect on growth of the tumor itself” value is reported as “do not inhibit the growth of the tumor itself”.
